The record followed here is patent US7560102B2, “Method for reducing neuronal degeneration so as to ameliorate the effects of injury or disease” (Yeda Research and Development Co., Ltd, priority 1998, dated 2009).

In assay [1] the test system is retinal ganglion cells (RGCs). The experiment in a line: Optic nerve crush injury after immunization with MOG p35-55, retrograde labeling of RGCs. The format is in vivo, rat. The note with it: 50 μg/animal with IFA intradermally in footpads ten days prior to crush; two weeks after injury. The protocol:
FIG. 10 is a graph illustrating inhibition of secondary degeneration after optic nerve crush injury in adult rats. See text, Example 3, for experimental details. Rats were injected intradermally through the footpads with a 21-mer peptide based on MOG amino acid residues 35-55 (MOG p35-55) (([…], chemically synthesized at the Weizmann Institute of Science, Rehovot, Israel) or PBS ten days prior to optic nerve crush injury or MOG p35-55 in the absence of crush injury. MOG p35-55 was administered with IFA. Surviving optic nerve fibers were monitored by retrograde labeling of RGCs. The number of RGCs in rats injected with PBS or MOG p35-55 was expressed as a percentage of the total number of neurons in rats injected with MOG p35-55 in the absence of crush injury.
Rats were injected intradermally in the footpads with MOG p35-55 (50 μg/animal) and IFA, or PBS, ten days prior to optic nerve crush injury. RGCs were assessed two weeks after injury using retrograde labeling as described above. The number of RGCs in rats injected with PBS or MOG p35-55 was expressed as a percentage of the total number of neurons in rats injected with MOG p35-55 in the absence of crush injury.

Another assay deals with contused spinal cord. The experiment in a line: Spinal cord contusion, post-traumatic immunization with Nogo p472, BBB hindlimb motor score. The format is in vivo, SPD rats.
Assay [2] relates to retinal ganglion cells (RGCs). In words: Optic nerve crush injury after oral MBP, retrograde labeling of RGCs. The note with it: fed antigen from ten days before mild crush injury (FIG. 14). The class given is in vivo, Lewis rats.
Experimental: MBP (Sigma, Israel) (1 mg in 0.5 ml saline) was administered orally to adult rats by gavage using a blunt needle. MBP was administered 5 times, i.e., every third day beginning two weeks prior to optic nerve crush injury. Surviving optic nerve fibers were monitored by retrograde labeling of RGCs. The number of RGCs in treated rats was expressed as a percentage of the total number of neurons in untreated rats following the injury.
Lewis rats were fed 1 mg MBP daily, or every other day, or 4 times a day at two-hour intervals for five consecutive days. Control animals were given PBS or the non-self antigen OVA Sigma, Israel). Ten days after the start of MBP ingestion, the right optic nerves were subjected to a calibrated mild crush injury. Two weeks later the RGCs were retrogradely labelled by application of the fluorescent lipophilic dye 4-Di-10-Asp(Molecular Probes Europe BV, Netherlands), distally to the site of injury, as described. […] Six days after dye application, the retina was detached from the eye, prepared as a flattened whole mount in 4% paraformaldehyde solution, and examined for labeled RGCs by fluorescence microscopy. RGCs were counted from three different regions in the retina. The results are expressed as normalized percentage of each retina to untreated injured animal mean of the same experiment. […]

Consider “MOG p35-55: 21-mer peptide based on amino acids 35-55 of MOG, chemically synthesized, given with IFA (MEVGWYRSPFSRVVHLYRNGK; given with IFA; UniProt Q61885 63-83, looked up, fragment)”, for which, in assay [1], the “number of labeled RGCs compared to animals receiving PBS” value is on record as “about 12.5 fold”.

Consider “p472: 18-mer peptide, residues 623-640 of rat Nogo-A (SEQ ID NO:19), emulsified in CFA (SYDSIKLEPENPPPYEEA; emulsified in CFA; listed as Rattus norvegicus)”, for which the “overall functional recovery compared to control rats (PBS in CFA or PBS only)” value in the assay with contused spinal cord (100 μg/rat in CFA s.c. after contusion, female and male rats, P<0.01) is recorded as “significantly improved”. For the same molecule, the “day from which hind limb locomotion was significantly better than PBS-treated controls” value in the assay with contused spinal cord (female rats, 50 mm, boosted one week after injury) worked out at 25 days. In the assay with contused spinal cord (male rats), the “day after injury from which locomotor performance was significantly better than PBS+CFA-treated controls” value was determined as 11 days.

B1: OVA: non-self antigen ovalbumin (Sigma) fed to control rats (protein, UniProt P01012 2-386, looked up)
Ovalbumin: GSIGAASMEFCFDVFKELKVHHANENIFYCPIAIMSALAMVYLGAKDSTRTQINKVVRFDKLPGFGDSIEAQCGTSVNVHSSLRDILNQITKPNDVYSFSLASRLYAEERYPILPEYLQCVKELYRGGLEPINFQTAADQARELINSWVESQTNGIIRNVLQPSSVDSQTAMVLVNAIVFKGLWEKAFKDEDTQAMPFRVTEQESKPVQMMYQIGLFRVASMASEKMKILELPFASGTMSMLVLLPDEVSGLEQLESIINFEKLTEWTSSNVMEERKIKVYLPRMKMEEKYNLTSVLMAMGITDVFSSSANLSGISSAESLKISQAVHAAHAEINEAGREVVGSAEAGVDAASVSEEFRADHPFLFCIKHIATNAVLFFGRCVSP
Consider B1, for which, in assay [2], the “number of surviving RGCs two weeks after optic nerve injury vs control group” value is “ns”.
